Legend:
EKVX = assay: NCI-60 SRB screen; type: cell-based, human; conditions: Homo sapiens, single dose 10^−5 M, Non-small cell lung carcinoma, read-out: Growth inhibition (%)
HCT-15 = assay: NCI-60 SRB screen; type: cell-based, human; conditions: Homo sapiens; single dose 10^−5 M; HCT-15, Colon cancer; read-out: Growth inhibition (%)
NCI-H23 = assay: NCI-60 SRB screen; type: cell-based, human; conditions: Homo sapiens; single dose 10^−5 M; NCI-H23, Non-small cell lung carcinoma; read-out: Growth inhibition (%)
SK-MEL-2 = assay: NCI-60 SRB screen; type: cell-based, human; conditions: Homo sapiens; single dose 10^−5 M; SK-MEL-2, Melanoma; read-out: Growth inhibition (%)
NCI/ADR-RES = assay: NCI-60 SRB screen; type: cell-based, human; conditions: Homo sapiens, single dose 10^−5 M, Ovarian cancer, read-out: Growth inhibition (%)
NCI-H522 = assay: NCI-60 SRB screen; type: cell-based, human; conditions: Homo sapiens; single dose 10^−5 M; NCI-H522, Non-small cell lung carcinoma; read-out: Growth inhibition (%)
UO-31 = assay: NCI-60 SRB screen; type: cell-based, human; conditions: Homo sapiens; single dose 10^−5 M; UO-31, Renal cancer; read-out: Growth inhibition (%)
COLO 205 = assay: NCI-60 SRB screen; type: cell-based, human; conditions: Homo sapiens; single dose 10^−5 M; COLO 205, Colon cancer; read-out: Growth inhibition (%)
NCI-H226 = assay: NCI-60 SRB screen; type: cell-based, human; conditions: Homo sapiens; single dose 10^−5 M; NCI-H226, Non-small cell lung carcinoma; read-out: Growth inhibition (%)
SN12C = assay: NCI-60 SRB screen; type: cell-based, human; conditions: Homo sapiens, SN12C; single dose 10^−5 M; SN 12 C, Renal cancer; read-out: Growth inhibition (%)
TK-10 = assay: NCI-60 SRB screen; type: cell-based, human; conditions: Homo sapiens; single dose 10^−5 M; TK-10, Renal cancer; read-out: Growth inhibition (%)
NCI-H322M = assay: NCI-60 SRB screen; type: cell-based, human; conditions: Homo sapiens, single dose 10^−5 M, Non-small cell lung carcinoma, read-out: Growth inhibition (%)
HCT-116 = assay: NCI-60 SRB screen; type: cell-based, human; conditions: Homo sapiens; single dose 10^−5 M; HCT-116, Colon cancer; read-out: Growth inhibition (%)
SK-MEL-28 = assay: NCI-60 SRB screen; type: cell-based; conditions: Homo sapiens; single dose 10^−5 M; SK-MEL-28, Melanoma; read-out: Growth inhibition (%)
MDA-MB-435 = assay: NCI-60 SRB screen; type: cell-based; conditions: Homo sapiens, MDA-MB-435, read-out: Growth inhibition (%)
HL-60(TB) = assay: NCI-60 SRB screen; type: cell-based, human; conditions: Homo sapiens; single dose 10^−5 M; HL-60(TB), Leukaemia; read-out: Growth inhibition (%)
IGROV1 = assay: NCI-60 SRB screen; type: cell-based, human; conditions: Homo sapiens, IGROV-1; single dose 10^−5 M; IGROV1, Ovarian cancer; read-out: Growth inhibition (%)
NCI-H460 = assay: NCI-60 SRB screen; type: cell-based, human; conditions: Homo sapiens; single dose 10^−5 M; NCI-H460, Non-small cell lung carcinoma; read-out: Growth inhibition (%)
SK-OV-3 = assay: NCI-60 SRB screen; type: cell-based, human; conditions: Homo sapiens; single dose 10^−5 M; SK-OV-3, Ovarian cancer; read-out: Growth inhibition (%)
[1] = test system: panel of 60 cancer cell lines; assay: NCI-60 SRB screen, mean or range over the panel; type: cell-based, human; conditions: Homo sapiens; mean over the cell lines; single dose 10^−5 M; read-out: Mean growth inhibition (%)
CAKI-1 = assay: NCI-60 SRB screen; type: cell-based, human; conditions: Homo sapiens; single dose 10^−5 M; CAKI-1, Renal cancer; read-out: Growth inhibition (%)
OVCAR-3 = assay: NCI-60 SRB screen; type: cell-based, human; conditions: Homo sapiens; single dose 10^−5 M; OVCAR-3, Ovarian cancer; read-out: Growth inhibition (%)
K-562 = assay: NCI-60 SRB screen; type: cell-based, human; conditions: Homo sapiens, K562; single dose 10^−5 M; K-562, Leukaemia; read-out: Growth inhibition (%)
OVCAR-4 = assay: NCI-60 SRB screen; type: cell-based, human; conditions: Homo sapiens; single dose 10^−5 M; OVCAR-4, Ovarian cancer; read-out: Growth inhibition (%)
LOX IMVI = assay: NCI-60 SRB screen; type: cell-based, human; conditions: Homo sapiens, single dose 10^−5 M, Melanoma, read-out: Growth inhibition (%)
HT-29 = assay: NCI-60 SRB screen; type: cell-based; conditions: Homo sapiens; single dose 10^−5 M; HT-29, Colon cancer; read-out: Growth inhibition (%)
MOLT-4 = assay: NCI-60 SRB screen; type: cell-based; conditions: Homo sapiens; single dose 10^−5 M; MOLT-4, Leukaemia; read-out: Growth inhibition (%)
HOP-62 = assay: NCI-60 SRB screen; type: cell-based, human; conditions: Homo sapiens; single dose 10^−5 M; HOP-62, Non-small cell lung carcinoma; read-out: Growth inhibition (%)
ACHN = assay: NCI-60 SRB screen; type: cell-based; conditions: Homo sapiens, single dose 10^−5 M, Renal cancer, read-out: Growth inhibition (%)
M14 = assay: NCI-60 SRB screen; type: cell-based, human; conditions: Homo sapiens; single dose 10^−5 M; M14, Melanoma; read-out: Growth inhibition (%)
A549/ATCC = assay: NCI-60 SRB screen; type: cell-based, human; conditions: Homo sapiens, single dose 10^−5 M, Non-small cell lung carcinoma, read-out: Growth inhibition (%)
HCC-2998 = assay: NCI-60 SRB screen; type: cell-based, human; conditions: Homo sapiens; single dose 10^−5 M; HCC-2998, Colon cancer; read-out: Growth inhibition (%)
SK-MEL-5 = assay: NCI-60 SRB screen; type: cell-based, human; conditions: Homo sapiens; single dose 10^−5 M; SK-MEL-5, Melanoma; read-out: Growth inhibition (%)
CCRF-CEM = assay: NCI-60 SRB screen; type: cell-based; conditions: Homo sapiens, single dose 10^−5 M, Leukaemia, read-out: Growth inhibition (%)
HOP-92 = assay: NCI-60 SRB screen; type: cell-based, human; conditions: Homo sapiens; single dose 10^−5 M; HOP-92, Non-small cell lung carcinoma; read-out: Growth inhibition (%)
SR = assay: NCI-60 SRB screen; type: cell-based; conditions: Homo sapiens, single dose 10^−5 M, Leukaemia, read-out: Growth inhibition (%)
OVCAR-8 = assay: NCI-60 SRB screen; type: cell-based, human; conditions: Homo sapiens; single dose 10^−5 M; OVCAR-8, Ovarian cancer; read-out: Growth inhibition (%)
UACC-62 = assay: NCI-60 SRB screen; type: cell-based, human; conditions: Homo sapiens; single dose 10^−5 M; UACC-62, Melanoma; read-out: Growth inhibition (%)
SF-295 = assay: NCI-60 SRB screen; type: cell-based, human; conditions: Homo sapiens; single dose 10^−5 M; SF-295, CNS cancer; read-out: Growth inhibition (%)
SW-620 = assay: NCI-60 SRB screen; type: cell-based; conditions: Homo sapiens; single dose 10^−5 M; SW-620, Colon cancer; read-out: Growth inhibition (%)
MALME-3M = assay: NCI-60 SRB screen; type: cell-based, human; conditions: Homo sapiens, single dose 10^−5 M, Melanoma, read-out: Growth inhibition (%)
UACC-257 = assay: NCI-60 SRB screen; type: cell-based, human; conditions: Homo sapiens; single dose 10^−5 M; UACC-257, Melanoma; read-out: Growth inhibition (%)
SF-268 = assay: NCI-60 SRB screen; type: cell-based, human; conditions: Homo sapiens; single dose 10^−5 M; SF-268, CNS cancer; read-out: Growth inhibition (%)
786-0 = assay: NCI-60 SRB screen; type: cell-based; conditions: Homo sapiens; single dose 10^−5 M; 786-0, Renal cancer; read-out: Growth inhibition (%)
KM12 = assay: NCI-60 SRB screen; type: cell-based, human; conditions: Homo sapiens; single dose 10^−5 M; KM12, Colon cancer; read-out: Growth inhibition (%)

N#CC1=C(N2CCCCC2)NC(c2cccc([N+](=O)[O-])c2)c2sc3c(F)cccc3c21 (stereo not drawn) [Compound 8f, 4-Cyano-3-(piperidin-1-yl)-8-fluoro-1-(3-nitrophenyl)-1,2-dihydro [1]benzothieno[2,3-c]pyridine]
inhibition at 10 µM (EKVX): 5.51% | inhibition at 10 µM (HCT-15): -4.78% | inhibition at 10 µM (NCI-H23): 4.09% | inhibition at 10 µM (SK-MEL-2): 2.71% | inhibition at 10 µM (NCI/ADR-RES): -1.61% | inhibition at 10 µM (NCI-H522): 9.54% | inhibition at 10 µM (UO-31): 33.3% | inhibition at 10 µM (COLO 205): -16.7% | inhibition at 10 µM (NCI-H226): 15.7% | inhibition at 10 µM (SN12C): 3.7% | inhibition at 10 µM (TK-10): -53.1% | inhibition at 10 µM (NCI-H322M): -5.64% | inhibition at 10 µM (HCT-116): 4.5% | inhibition at 10 µM (SK-MEL-28): -10.7% | inhibition at 10 µM (MDA-MB-435): -6.93% | inhibition at 10 µM (HL-60(TB)): -3.35% | inhibition at 10 µM (IGROV1): 14.9% | inhibition at 10 µM (NCI-H460): 2.2% | inhibition at 10 µM (SK-OV-3): 7.22% | inhibition at 10 µM [1]: 0.008% | inhibition at 10 µM (CAKI-1): 28.7% | inhibition at 10 µM (OVCAR-3): 0.09% | inhibition at 10 µM (K-562): 23.1% | inhibition at 10 µM (OVCAR-4): 0.9% | inhibition at 10 µM (LOX IMVI): 2.61% | inhibition at 10 µM (HT-29): -4.42% | inhibition at 10 µM (MOLT-4): 5.31% | inhibition at 10 µM (HOP-62): 10.2% | inhibition at 10 µM (ACHN): 14.3% | inhibition at 10 µM (M14): 0.58% | inhibition at 10 µM (A549/ATCC): -2.65% | inhibition at 10 µM (HCC-2998): -23.2% | inhibition at 10 µM (SK-MEL-5): -14.8% | inhibition at 10 µM (CCRF-CEM): 3.32% | inhibition at 10 µM (HOP-92): 4.9% | inhibition at 10 µM (SR): 11.1% | inhibition at 10 µM (OVCAR-8): -0.33% | inhibition at 10 µM (UACC-62): 15.5% | inhibition at 10 µM (SF-295): -9.62% | inhibition at 10 µM (SW-620): 4.11% | inhibition at 10 µM (MALME-3M): -10.6% | inhibition at 10 µM (UACC-257): -12.7% | inhibition at 10 µM (SF-268): 9.44% | inhibition at 10 µM (786-0): -12.1% | inhibition at 10 µM (KM12): 5.13%

O=[N+]([O-])c1cccc(C2NC3=C(Nc4ccccc4N3)c3c2sc2c(F)cccc32)c1 (stereo not drawn) [Compound 9, 9-Fluoro-7-(3-nitrophenyl)-5,6,7,13-tetrahydro[1]benzothieno[3′,2′:4,5]-pyrido[2,3-b]quinoxaline]
inhibition at 10 µM (EKVX): 4.82% | inhibition at 10 µM (HCT-15): -4.08% | inhibition at 10 µM (NCI-H23): 0.22% | inhibition at 10 µM (SK-MEL-2): 3.87% | inhibition at 10 µM (NCI/ADR-RES): -6.5% | inhibition at 10 µM (NCI-H522): 4.63% | inhibition at 10 µM (UO-31): 36.1% | inhibition at 10 µM (COLO 205): -17.1% | inhibition at 10 µM (NCI-H226): 10.4% | inhibition at 10 µM (SN12C): 1.71% | inhibition at 10 µM (TK-10): -54.7% | inhibition at 10 µM (NCI-H322M): -1.56% | inhibition at 10 µM (HCT-116): -1.05% | inhibition at 10 µM (SK-MEL-28): -7.98% | inhibition at 10 µM (MDA-MB-435): -7% | inhibition at 10 µM (HL-60(TB)): -3.65% | inhibition at 10 µM (IGROV1): 24.2% | inhibition at 10 µM (NCI-H460): 1.16% | inhibition at 10 µM (SK-OV-3): -1.7% | inhibition at 10 µM [1]: 7.87% | inhibition at 10 µM (CAKI-1): 28.3% | inhibition at 10 µM (OVCAR-3): -3.93% | inhibition at 10 µM (K-562): 16.6% | inhibition at 10 µM (OVCAR-4): -2.74% | inhibition at 10 µM (LOX IMVI): 3.13% | inhibition at 10 µM (HT-29): -5.27% | inhibition at 10 µM (MOLT-4): -1.99% | inhibition at 10 µM (HOP-62): 9.45% | inhibition at 10 µM (ACHN): 15.5% | inhibition at 10 µM (M14): 1.33% | inhibition at 10 µM (A549/ATCC): -2.98% | inhibition at 10 µM (HCC-2998): -17.5% | inhibition at 10 µM (SK-MEL-5): -22% | inhibition at 10 µM (CCRF-CEM): -1.14% | inhibition at 10 µM (HOP-92): -1.53% | inhibition at 10 µM (SR): 16.5% | inhibition at 10 µM (OVCAR-8): -3.4% | inhibition at 10 µM (UACC-62): 11.5% | inhibition at 10 µM (SF-295): -7.1% | inhibition at 10 µM (SW-620): 2% | inhibition at 10 µM (MALME-3M): -7.56% | inhibition at 10 µM (UACC-257): -15.2% | inhibition at 10 µM (SF-268): 7.06% | inhibition at 10 µM (786-0): -10.3% | inhibition at 10 µM (KM12): -0.46%
